Columns and labels:
Assay in all cases: differential drug sensitivity score (dDSS) relative to sarcoma reference cohort mean DSS (DSS units (0-100 scale difference)); higher = more selective sensitivity than reference sarcomas
Details in all cases: exposure time: 72 h; concentration range: 10-10000 nM
[1] = system: CDS-ZH001-2 (patient-derived CIC-DUX4 sarcoma tumoroid)
Protocol: (§1)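 Drug response profiling of patient-derived Ewing sarcoma and CIC::DUX4 sarcoma tumoroid models (or cells tested directly after isolation from the tumor, 'direct'). The DSS is the normalised AUC (0-100); dDSS is the sample DSS minus the mean DSS of a 34-sarcoma reference cohort profiled in the same lab.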

[2] = system: CDS-ZH001 (patient-derived CIC-DUX4 sarcoma tumoroid)
Protocol: as §1

[3] = system: CDS-ZH002 direct (CIC-DUX4 sarcoma cells right after isolation)
Protocol: as §1

[4] = system: CDS-ZH002 (patient-derived CIC-DUX4 sarcoma tumoroid)
Protocol: as §1

[5] = system: CDS-ZH003 (patient-derived CIC-DUX4 sarcoma tumoroid)
Protocol: as §1

[6] = system: ES-ZH001 (patient-derived Ewing sarcoma tumoroid)
Protocol: as §1

[7] = system: ES-ZH002 (patient-derived Ewing sarcoma tumoroid)
Protocol: as §1

[8] = system: ES-ZH004 (patient-derived Ewing sarcoma tumoroid)
Protocol: as §1

[9] = system: ES-ZH007 (patient-derived Ewing sarcoma tumoroid)
Protocol: as §1

[10] = system: ES-ZH008 (patient-derived Ewing sarcoma tumoroid)
Protocol: as §1

[11] = system: ES-ZH009 (patient-derived Ewing sarcoma tumoroid)
Protocol: as §1

[12] = system: ES-ZH016 direct (Ewing sarcoma cells right after isolation)
Protocol: as §1

[13] = system: ES-ZH016 (patient-derived Ewing sarcoma tumoroid)
Protocol: as §1

| SMILES | differential drug sensitivity score [1] | differential drug sensitivity score [2] | differential drug sensitivity score [3] | differential drug sensitivity score [4] | differential drug sensitivity score [5] | differential drug sensitivity score [6] | differential drug sensitivity score [7] | differential drug sensitivity score [8] | differential drug sensitivity score [9] | differential drug sensitivity score [10] | differential drug sensitivity score [11] | differential drug sensitivity score [12] | differential drug sensitivity score [13] |
| --- | --- | --- | --- | --- | --- | --- | --- | --- | --- | --- | --- | --- | --- |
| CCN(CC)CCCC(C)Nc1nc(C)cc(Nc2ccc3nc(C)cc(N)c3c2)n1 (centres undefined) | 9.7 | -0.8 | 2.8 | 1.1 | -1 | -1 | 0.7 | 1.1 | 0.4 | -1 | -0.9 | -1 | -1 |
| CCN(c1cc(C#CCN2CCOCC2)cc(C(=O)NCc2c(C)cc(C)[nH]c2=O)c1C)[C@H]1CC[C@H](N(C)CCOC)CC1 | -0.9 | -1.4 | -1.2 | -0.7 | -1.4 | 3.1 | 2.8 | -1.4 | -1.4 | 0.2 | -1.4 | -1.4 | -1.4 |
| CCc1ccc(/C=C2/SC(=S)NC2=O)cc1 | 1 | 3.2 | -2.1 | 2.3 | -1.6 | -2.1 | 1.2 | -2.1 | -1.2 | -1.6 | 3.1 | 4 | 5.6 |
| CCc1cncnc1N1CCN(Cc2nc3ccc(C(F)(F)F)cc3[nH]2)CC1 | -3.6 | -3.7 | -2.4 | -1 | -0.6 | -0.7 | -3.9 | -2.8 | -1.7 | -3.8 | 3.3 | -4.2 | -3.1 |
| CCn1c(-c2nonc2N)nc2c(C#CC(C)(C)O)ncc(OC[C@H]3CCCNC3)c21 | -9.5 | 5.1 | -3.1 | -9.5 | -9.5 | 0.5 | 13 | 10.8 | 4.4 | 15.5 | 5.5 | -1 | 1.1 |
| CCn1c(-c2nonc2N)nc2cnc(Oc3cccc(NC(=O)c4ccc(OCCN5CCOCC5)cc4)c3)cc21 | 1.1 | -2.7 | -2.4 | -2.9 | -1.3 | 1.8 | 4.5 | -2.6 | -2.1 | -2.1 | 6.5 | -1.7 | 2 |
| CCn1cc(C(=O)O)c(=O)c2c(N)c(F)c(NC3CCCCC3)cc21 | -0.9 | -0.9 |  | -0.9 | -0.9 | -0.9 | -0.9 | -0.9 | -0.3 | -0.9 | 3.3 | 7.2 | -0.9 |
| CN(c1ncccc1CNc1nc(Nc2ccc3c(c2)CC(=O)N3)ncc1C(F)(F)F)S(C)(=O)=O | 1.5 | 5.1 | 3.8 | -0.6 | -0.7 | 5 | 6 | -0.4 | -0.4 | -0.7 | 0.8 | -1.2 | 2.2 |
| COc1cc2c(Nc3ccc(NC(=O)c4ccccc4)cc3)ncnc2cc1OCCCN1CCOCC1 | 2.9 | 0.8 | 0.1 | -2.2 | -2.2 | 4.9 | 8.1 | 2.2 | 0.4 | -2 | 7.1 | 6.7 | 1.6 |
| COc1cc2nc(N3CCCN(C)CC3)nc(NC3CCN(Cc4ccccc4)CC3)c2cc1OC | 4 | 0.2 | 1.5 | -1.1 | 4 | 0.7 | 0 | 6.4 | 7.4 | 1.2 | -0.4 | 3.9 | -0.1 |
| Cc1c(-c2c(-c3ccc(F)o3)sc3ncnc(O[C@H](Cc4ccccc4OCc4ccnn4CC(F)(F)F)C(=O)O)c23)ccc(OCCN2CCN(C)CC2)c1Cl | 29.6 | 32.7 | 19.6 | 10.4 | 31.7 | -11.5 | 9.2 | 12.2 | 28.5 | 8.1 | 11.6 | 14.5 | 7 |
| Cc1c(-c2ccc(N3CCc4cccc(C(=O)Nc5nc6ccccc6s5)c4C3)nc2C(=O)O)cnn1CC12CC3CC(CC(C3)C1)C2 |  |  | 2.8 |  |  |  |  |  |  |  | 10.9 | 7.8 | -9.5 |
| Cc1ccc2nc(NCCN)c3ncc(C)n3c2c1 | 4.2 | 3 | 2.2 | 1 | -1.9 | 1.4 | 3.8 | -2.3 | 1.4 | -1.3 | 1.8 | 0.5 | 3.7 |
| Cc1nc(Nc2n[nH]c3c2CN(C(=O)N[C@H](CN(C)C)c2ccccc2)C3(C)C)c2sccc2n1 | 5.3 | 5.9 | 3.6 | 0 | -5.2 | 5.3 | 15.4 | 9.2 | 17.9 | 4.9 | 12.7 | -4.7 | 0.7 |
| Cc1nn(C)c(COc2ccc(N3CCN(S(=O)(=O)N(C)C)CC3)cc2)c1-c1cccc2c(CCCOc3cccc4ccccc34)c(C(=O)O)n(CCN3CCOCC3)c12 | -0.8 | 4.4 | -0.8 | -0.8 | 0 | -0.8 | -0.4 | -0.8 | -0.8 | -0.8 | -0.8 | -0.8 | -0.8 |
| Cn1cc(C2=C(c3ccc(Cl)cc3Cl)C(=O)NC2=O)c2ccccc21 | -1.5 | -1.5 | -1.5 | -1.5 | -6.5 | 6.9 | 5.1 | 2.1 | 0.1 | 3.8 | -1.5 | 0.4 | -1.5 |
| O=C(NCC1CCOCC1)c1cnc(Nc2ccc(Cl)cc2Cl)nc1C(F)(F)F | -0.5 | -0.5 | -0.5 | -0.5 | -0.5 | -0.5 | -0.5 | -0.5 | -0.5 | -0.5 | -0.5 | -0.5 | -0.5 |
| O=C(Nc1ccncc1)c1cc([N+](=O)[O-])ccc1Cl | -2.3 | -0.7 | 5.4 | -3 | -14.7 | 11.8 | 14.8 | 11.7 | 0.8 | 12.2 | -3.3 | -0.6 | -2.4 |
| O=c1cc(-c2cccc3c2Sc2ccccc2S3)oc(N2CCOCC2)c1 | 2.9 | 0 | 3.7 | -0.2 | -1.3 | -1.3 | -1.3 | -1.3 | -1.3 | -1.3 | -0.4 | 13.8 | -1.3 |
| CNC(=O)Nc1ccc2c(c1)CC[C@@]21OC(=O)N(CC(=O)N(Cc2ccc(F)cc2)[C@@H](C)C(F)(F)F)C1=O [A-485] | -2.1 | 8.4 | 6.8 | 6.8 | 22.3 | 4.6 | 5.2 | -3.4 | 2.9 | 1.4 | 2.6 | -5.4 | -4 |
| CCN1CCN(Cc2ccc(-c3cc4c(N[C@H](C)c5ccccc5)ncnc4[nH]3)cc2)CC1 [AEE788] | -0.2 | -0.7 | -1.2 | -3 | 5.8 | 3.6 | 0.3 | -1.1 | -4 | -0.1 | 1.6 | -6.1 | -4.1 |
| O=C(Nc1c[nH]nc1-c1nc2ccc(CN3CCOCC3)cc2[nH]1)NC1CC1 [AT9283] | 7 | -1.2 | -0.7 | -3.6 | -2 | 24.4 | 10.8 | 4 | 6.1 | 18.4 | 24.5 | 14.2 | 10.8 |
| N#Cc1ccc2[nH]c(O)c(-c3ccc(CN4CCOCC4)cn3)c2c1 [AZD1080] | -0.1 | -0.1 | -0.1 | -0.1 | -0.1 | -0.1 | -0.1 | 0.6 | 0.4 | 1 | 0 | 0.2 | -0.1 |
| N[C@@H]1CCCN(c2c(/C=C3\SC(=O)NC3=O)cccc2-c2ccccc2)C1 [AZD1208] | 2 | 8.2 | 1.1 | 1.2 | 13.6 | -0.4 | 0 | -0.8 | -2.9 | 1.8 | 3.6 | -2.9 | -2.9 |
| O=C(O)C1(C(=O)O)CCC1.[NH2-].[NH2-].[Pt+2] [Carboplatin] | -1.6 |  | -1.2 | -1.6 | -1.6 | -0.3 | 2.2 | 0.8 | -0.9 | 2.5 | -1.6 | 8.6 | 1.7 |
| CCN(CC)CCCC(C)Nc1ccnc2cc(Cl)ccc12 (centres undefined) [Chloroquine] | 4.7 | 0.3 |  | 5.3 | -3.8 | -3.8 | -0.6 | 3 | 2.8 | 1.4 | -2 |  |  |
| N.N.[Cl][Pt][Cl] [Cisplatin] |  |  | -2.4 | -0.5 |  | -1.1 | 7.1 | 5.8 | 3.9 | 2.9 | -1.4 |  |  |
| COc1ccc(-c2nc(N3CCOCC3)c3sc(CN(C)c4ncc(C(=O)NO)cn4)cc3n2)cn1 [Fimepinostat] | 5.7 | 1.5 |  | -3.2 | -0.5 | 5.9 | 6 | 8.6 | 10.6 | 9.2 | 6.1 | 8.8 | 0.5 |
| CC(C)(C)Cn1c(N)nc2ccc(-c3[nH]c(C(C)(C)C)nc3-c3ccc(F)cc3)nc21 [Ralimetinib] | 6.3 | -2.9 |  | 4.9 | 13.4 | -5.3 | 0 | -2.2 | -4.3 | -4.4 | -3.2 |  |  |
